From patent publication US20240279232A1, “USE OF SUBSTITUTED 5-(4-METHYL-6-PHENYL-4H-BENZO[F]IMIDAZO[1,5-A][1,4] DIAZEPIN-3-YL)-1,2,4-O[…] THE TREATMENT OF INFLAMMATORY CONDITIONS” (priority 2021, published 2024)

How the values were obtained:
RAW macrophages [1] = assay: NO production (Griess assay), LPS/IFNγ-activated RAW264.7 macrophages; format: cell-based, mouse; conditions: 10 μM, 24 hours, 1 μM GABA, LPS/IFNγ
Mouse microglia [2] = assay: NO production (Griess assay), LPS/IFNγ-activated mouse microglia; format: cell-based; conditions: 10 μM, 24 hours, 1 μM GABA, LPS/IFNγ
RAW macrophages [3] = assay: Cell viability (CellTiter-Glo), RAW macrophages; format: cell-based, mouse; conditions: CellTiter-Glo
Mouse microglia [4] = assay: Cell viability (CellTiter-Glo), mouse microglia; format: cell-based; conditions: 50 μM, CellTiter-Glo
Experimental: Next, a library of GABAAR ligands was investigated to identify compounds that reduce the production of NO as a marker of anti-inflammatory activity. […] NO was quantified with a Greiss assay. Cell viability was determined with CellTiter-Glo.
Nitric oxide production (Griess assay) and viability assay (CellTiter-Glo). 80 μL of mouse microglia culture (1×10^6 cells/mL) was plated into sterile 384 well plates representing non-activated wells. The remaining culture was activated with 50 ng/ml LPS (Invivogen, NC9836) and 150 U/mL IFNγ (R&D Systems, 485MI100) and distributed into the 384 well plates. […] Assay plates were incubated for approximately 24 hours (unless otherwise noted) at 37° C., centrifuged, and 40 μL of supernatant transferred to a new plate for analysis using the Griess Assay (Promega, Madison, WI). Absorbance at 530 nm was measured using a TECAN Infinite M1000 plate reader. The remaining 40 μL containing cells was analyzed for toxicity by the CellTiter-Glo Assay (Promega, Madison, WI). Luminescence was read using a TECAN Infinite M1000 plate reader.

HEK293 = assay: Viability assay (CellTiter-Glo), HEK293; format: cell-based, human; conditions: for Cell viability (%) HEK293 120 μM: CellTiter-Glo
Experimental: (§1) The screen identified several compounds that reduced NO in activated microglia and macrophages. The tested compounds included achiral and chiral imidazodiazepines and benzodiazepines. In general, microglia were more sensitive to compound treatment with more pronounced reduction of NO than macrophages. […] Cell viability assays with HEK293 (kidney) and HepG2 (liver) cells were conducted in a concentration dependent manner. A limited number of compounds, such as GL-III-63, GL-III-76A, and GL-III-77, were toxic at 120 μM.
(§2) Viability assay. Human liver hepatocellular carcinoma (HEPG2) and human embryonic kidney 293T (HEK293T) cell lines were purchased (ATCC) and cultured in 75 cm^2 flasks (CellStar). Cells were grown in DMEM/High Glucose (Hyclone, #SH3024301) media to which non-essential amino acids (Hyclone, #SH30238.01), 10 mM HEPES (Hyclone, #SH302237.01), 5×10^6 units of penicillin and streptomycin (Hyclone, #SV30010), and 10% of heat inactivated fetal bovine serum (Gibco, #10082147) were added. Cells were harvested using 0.05% Trypsin (Hyclone, #SH3023601), washed with PBS, and dispensed into sterile white, optical bottom 384-well plates (NUNC, #142762). After three hours, small molecule DMSO solutions were transferred with a Tecan Freedom EVO liquid handling system equipped with a 100 nL pin tool (V&P Scientific). The controls were 3-dibutylamino-1-(4-hexyl-phenyl)-propan-1-one (25 mM in DMSO, positive control) and DMSO (negative control). The cells were incubated for 48 hours followed by the addition of CellTiter-Glo™, a luminescence-based cell viability assay (Promega, Madison, WI). All luminescence readings were performed on a Tecan Infinite M1000 plate reader. The assay was carried out in quadruplet with two independent runs. The data were analyzed by nonlinear regression.

HEPG2 = assay: Viability assay (CellTiter-Glo), HEPG2; format: cell-based, human; conditions: for Cell viability (%) HEPG2 120 μM: CellTiter-Glo
Experimental: as §1, §2

SMILES	Inhibition of NO production (%) RAW macrophages 10 μM (RAW macrophages [1])	Inhibition of NO production (%) Mouse microglia 10 μM (Mouse microglia [2])	Cell viability (%) RAW macrophages 50 μM (RAW macrophages [3])	Cell viability (%) Mouse microglia 50 μM (Mouse microglia [4])	Cell viability (%) HEK293 120 μM (HEK293)	Cell viability (%) HEPG2 120 μM (HEPG2)	toxicity at 120 μM (in words) (HEK293; HEK293, 120 μM)	toxicity at 120 μM (in words) (HEPG2; HepG2, 120 μM)
C#Cc1ccc2c(c1)C(c1ccccn1)=N[C@H](C)C(=O)N2 [GL-III-27]	1 ± 3%	29 ± 8%	100 ± 4%	86 ± 8%	91 ± 2%	77 ± 7%		
CC1N=C(c2ccccc2F)c2cc(Br)ccc2-n2cnc(C=O)c21 (centres unmarked) [GL-III-35]	0 ± 4%	17 ± 7%	100 ± 2%	100 ± 8%	79 ± 8%	98 ± 8%		
CC1N=C(c2ccccc2F)c2cc(Cl)ccc2NC1=O (centres unmarked) [GL-III-52]	2 ± 2%	57 ± 11%	97 ± 8%	85 ± 8%	73 ± 8%	81 ± 9%		
CCOC(=O)c1ncn2c1[C@@H](C)N=C(c1ccccc1F)c1cc(Cl)ccc1-2 [GL-III-53]	3 ± 2%	85 ± 14%	97 ± 7%	72 ± 7%	47 ± 10%	94 ± 10%		
C#Cc1ccc2c(c1)C(c1ccccc1)=NCC(=O)N2 [GL-III-59]	8 ± 1%	43 ± 7%	100 ± 3%	96 ± 4%	100 ± 4%	100 ± 2%		
CCNC(=O)c1ncn2c1[C@@H](C)N=C(c1ccccc1F)c1cc(Br)ccc1-2 [GL-III-67]	4 ± 2%	33 ± 1%	100 ± 7%	85 ± 10%	66 ± 6%	100 ± 9%		
CC1N=C(c2ccccc2F)c2cc(C#C[Si](C)(C)C)ccc2-n2cnc(-c3cnco3)c21 (centres unmarked) [GL-III-72]	57 ± 7%	21 ± 7%	77 ± 4%	100 ± 10%	64 ± 8%	100 ± 3%		
CC1N=C(c2ccccc2F)c2cc(Br)ccc2-n2cnc(C=O)c21 (centres unmarked) [GL-III-75]	3 ± 5%	44 ± 2%	100 ± 2%	87 ± 7%	73 ± 2%	74 ± 6%		
CC1N=C(c2ccccc2F)c2cc(C#C[Si](C)(C)C)ccc2-n2cnc(-c3cnco3)c21 (centres unmarked) [GL-III-77]	29 ± 2%	31 ± 2%	85 ± 3%	98 ± 4%	0 ± 2%	0 ± 4%	toxic	toxic
C#Cc1ccc2c(c1)C(c1ccccc1F)=NC(C)c1c(C(=S)NC)ncn1-2 (centres unmarked) [GL-III-84]	10 ± 5%	32 ± 4%	100 ± 12%	96 ± 8%	64 ± 5%	100 ± 10%		
C#Cc1ccc2c(c1)C(c1ccccc1F)=NC(C)c1c(C(=S)N(C)C)ncn1-2 (centres unmarked) [GL-III-85]	0 ± 2%	34 ± 8%	100 ± 10%	84 ± 12%	70 ± 12%	100 ± 11%		
